Values quoted from earlier work as cited in patent US6610313B2, “Lysophospholipids composition with water solubility” (Doosan Corporation, priority 2001, dated 2003).

Tests used:
phospholipase D = settings: Proc. Natl. Acad. Sci. USA, Vol.94, pp12717-12721
tomato = settings: U.S. Pat. Nos. 5,220,341 and 5,126,155
[1] = LPE alone

Substance: lysophosphatidylcholine [LPC]
- inhibition effect of phospholipase D (phospholipase D): only a slight activity

Substance: lysophosphatidylethanolamine [LPE]
- aging of leaves and fruits of tomato (tomato): inhibits the aging of leaves and fruits of tomato
- storage time of tomato after harvesting (tomato): extends the storage time of tomato after harvesting
- inhibition effect of phospholipase D (phospholipase D): most excellent
- water solubility of LPE itself [1]: not water-soluble

Substance: lysophosphatidylglycerol [LPG, reference compound]
- inhibition effect of phospholipase D (phospholipase D): opposite

Substance: lysophosphatidylic acid [LPA, reference compound]
- inhibition effect of phospholipase D (phospholipase D): cannot inhibit

Substance: lysophosphatidylinositol [LPI]
- inhibition effect of phospholipase D (phospholipase D): gradually decreases

Substance: lysophosphatidylserine [LPS, reference compound]
- inhibition effect of phospholipase D (phospholipase D): opposite
